The assay deals with western and northern corn rootworm. Kind of assay: Field trial, corn rootworm damage by Iowa class and synergy test, Example 3. In kind it is in vivo. An excerpt: A field trial was established and completed in accordance with pertinent protocols and in conformance with USDA notification requirements. The purpose of the trial was to determine the efficacy of transgenic event Cry3Bb.11231 in corn seed in combination with corn rootworm seed treatments using imidacloprid.
For each growing site that was selected, the plot design included the following:
The following seed treatment combinations were used for each growing area:
All seed treatments with pesticides were carried out as described in Example 1. In seed treatment number 1 and 2, Gaucho® was used for wire worm protection, but at levels sufficiently low that it would be expected to have no effect on corn rootworms (i.e., at a treatment level of about 60 gm of active/100 kg seed or 0.16 mg active/kernel), otherwise, seed receiving treatment number 2 had only transgenic event Cry3Bb.11231 and no pesticide treatment that would be expected to be effective against corn rootworm.
For seeds having treatments numbered 3 through 5, the pesticides were applied by the methods described in Example 1. For seeds having treatment numbers 6 and 7, commercially available Force® 3G and Lorsban® 15G were applied to the soil in a 5″ band at the time of sowing. The levels of application are as shown and are within the ranges recommended for standard commercial practice.
Corn seeds to be tested were planted and grown at four different locations across several Midwestern states in the United States corn belt according to the protocol described above.
The determination of damage by corn root worm was made according to the protocol described in Example 2.
Cry3Bb.11231 transgenic event was tested for possible synergy at a level of rootworm damage of 3-6. In the first test, shown in Table 2, the percentage of test plants having damage levels of from 3 to 6, on the Iowa 1-6 Scale, was determined for the control and for seeds treated with the pesticide at two levels, and for seeds having the transgenic event, alone and in combination. The following formula was then used to calculate a “synergy threshold”: (% of control Cry3Bb.11231)*(% of control imidacloprid treatment)/100.
This threshold was compared against the percent of control for the treatment combination (i.e., Cry3Bb.11231 with imidacloprid @ 400 gm/100 kg). If the treatment combination percent of control was below the threshold, then it was concluded that there was synergy.
It was believed that the measurement of rootworm damage at higher damage levels (i.e., levels 3-6) is a useful indicator that correlates with subsequent yield loss due to such damage. The reason for this is that rootworm damage at levels 1 and 2 seldom causes corn plants to fall over and lodge, and such minimal root loss is not believed to reduce the number or weight of kernels per ear. However, root damage at levels of 3 and above increasingly causes lodging and loss of yield. Therefore, it is believed that the summed damage levels of 3-6 (and in some cases, 4-6 and 5 and 6), provides a useful indication of the effect of corn rootworm damage on subsequent corn yield.

The structures appear in SMILES notation.

As to `O=[N+]([O-])NC1=NCCN1Cc1ccc(Cl)nc1` [Imidacloprid, 1-[(6-chloro-3-pyridinyl)methol]-N-nitro-2-imidazolidinimime], the “effectiveness against corn rootworm damage” value (imidacloprid at 400 gm/100 kg of seed) is on record as “effective against corn rootworm damage”. Under “number of plants in Iowa class 1, imidacloprid at 400 g/100 kg seed”, the “CORN ROOTWORM DAMAGE IN EACH IOWA CLASS (IOWA 1-6 SCALE) 1” value was 3. In addition, the “CORN ROOTWORM DAMAGE IN EACH IOWA CLASS (IOWA 1-6 SCALE) 2” value (number of plants in Iowa class 2, imidacloprid at 400 g/100 kg seed) turned out to be 15. Besides, the “CORN ROOTWORM DAMAGE IN EACH IOWA CLASS (IOWA 1-6 SCALE) 3” value (number of plants in Iowa class 3, imidacloprid at 400 g/100 kg seed) was determined as 36. Further, under “number of plants in Iowa class 4, imidacloprid at 400 g/100 kg seed”, the “CORN ROOTWORM DAMAGE IN EACH IOWA CLASS (IOWA 1-6 SCALE) 4” value is recorded as 21. The “CORN ROOTWORM DAMAGE IN EACH IOWA CLASS (IOWA 1-6 SCALE) 5” value (number of plants in Iowa class 5, imidacloprid at 400 g/100 kg seed) worked out at 5. Also, the “CORN ROOTWORM DAMAGE IN EACH IOWA CLASS (IOWA 1-6 SCALE) 6” value (number of plants in Iowa class 6, imidacloprid at 400 g/100 kg seed) is 0.

These data come from US9816104B2, “Compositions and methods for deploying a transgenic refuge as a seed blend” (priority 2000, dated 2017).
